Numbered stars: 1 amine (or outer) side, 2 acyl side, 3 side chain; on linkers, the order of the positions; unused ones are H or OH. Bridge positions count the residues as written; N and C are the ends. Square brackets hold non-standard residues; d marks the D form. Peptide text beside a SMILES is read from it. I, II: the chains in the order shown. Actinocin(9to1) = Cc1c2oc3c(C)ccc(C(=O)[*:1])c3nc-2c(C(=O)[*:2])c(N)c1=O; NMeV = CN[C@H](C(=O)O)C(C)C; Sar = CNCC(=O)O
Legend:
[1] = test system: c-Myc mRNA; assay: c-Myc mRNA level and transcription sites in A549 cells; type: cell-based, human
Source text: (§1) A549 cells were exposed to vehicle, general transcription inhibitor actinomycin D or anti-c-Myc compound.
(§2) In gray, cell nuclei stained with DAPI; in red, c-Myc protein; in purple, c-Myc mRNA; in yellow, c-Myc transcription sites.

[2] = test system: c-Myc; assay: c-Myc immunofluorescence assay; type: cell-based, human; details: A549 cells; for Myc Efficacy (−LogEC50): 24 hours treatment, anti-c-Myc immunofluorescence
How it was run: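 High-content imaging (20×) of PFA-fixed A549 cells immunostained for c-Myc with DAPI nuclei, after 24 h compound treatment at increasing concentrations. Per-cell c-Myc signal in identified cell regions was plotted against dose and fitted by logistic regression to give EC50.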

[3] = test system: c-Myc protein; assay: c-Myc protein level in A549 cells; type: cell-based, human
Source text: as §1, §2

[4] = test system: c-Myc mRNA; assay: Fluorescent in situ hybridization (FISH) assay for c-Myc mRNA; type: cell-based, human; details: A549 cells, 4 hours, FIG. 3 lower panel
Procedure: A549 cells were incubated with compounds for 24 hours (FIG. 3, upper panel) and c-Myc protein detected by immunofluorescence. In parallel, A549 cells were incubated with compounds for 4 hours and c-Myc mRNA was visualized by micrscopy using c-Myc mRNA specific fluorescent-tagged probes (FIG. 3, lower panel).
A549 cells were grown in 384-wells plates (Perkin Elmer, Cat. 6057300) for 48 hours, treated with compounds for 4 hours and then fixed for 20 min in 4% paraformaldehyde. Next day, permeabilization was done for 90 min at 4° C., using 70% ethanol. Then, the cells were incubated for 10 min with 10% formamide in 10% saline-sodium citrate. Fluorescently labeled custome DNA probes that target c-Myc (Cy3, BioSearch Technologies, Cat. SMF-1063-5) and GAPDH (Cy5, BioSearch Technologies, Cat. SMF-2019-1) mRNAs were hybridized overnight at 37° C. in a dark chamber in 10% formamide. The next day, cells were washed twice with 10% formamide for 30 min. […]
Following RNA FISH experiments, images of cells were taken with Operetta (Perkin Elmer, USA), a wide-field fluorescence microscope at ×63 magnification. […] In Columbus, cells were identified by their nucleus, using the “Find Nuceli” module, cytoplasm was detected based on the FISH-channel, and single mRNAs in the cytoplasm and transcription sites in the nucleus were detected using “Find Spots” module. […]

[5] = test system: A549 cells; assay: Metabolic labeling (L-Azidohomoalanine) of global protein synthesis in A549 cells; type: cell-based, human
Source text: FIG. 2 depicts selective regulation of c-Myc translation. […] In gray, cell nuclei stained with DAPI; in yellow, L-Azidohomoalanine (AHA) metabolic labeling.

[6] = test system: global translation; assay: Metabolic labeling assay (global translation, modified methionine incorporation); type: cell-based, human; details: A549 cells, 4 hour pulse, FIG. 2
Procedure: A549 cells were incubated with active compounds and metabolically labelled with fluorescent methionine for a 4 hour pulse (click-chemistry modified methionine). Cells were fixed and newly synthesized proteins detected by using click-chemistry with a fluorescent detector (FIG. 2).
A549 cells were seeded at 3,200 cells per well in complete culture medium. Plates were incubated at 37° C., 5% CO2 overnight. After 48 hours of incubation, the growth medium was aspirated, and cells were washed three times with HBSS. Metabolic labeling medium DMEM (-Cys-Met), containing 10% dialyzed FBS, 10% pencillin-streptomycin and 1% L-glutamine was added to the cells for 30 min. Then medium was replaced by metabolic labeling medium containing 25 μM L-Azidohomoalanine (AHA, ThermoFisher) and tested compounds at a final concentration of 30 μM, and cells were incubated for 4 hours at 37° C., 5% CO2. Cells were washed by HBSS at 37° C. for 15 min before fixing with 4% paraformaldehyde. Cells were washed twice with 3% BSA in PBS before permeabilization with 0.5% Triton X-100 in PBS for 20 min. The AHA staining with Alexa Fluor™ 555 alkyne was performed according to the manufacturer protocol. Images were captured with Operetta microscope (Perkin Elmer) using ×20 high NA objective lens.

[7] = test system: A549 xenografts; assay: A549 xenograft tumor growth in nude mice; type: in vivo; details: NMRI female nude mice, 3 mg/kg twice a week for 49 days, p<0.05
Procedure: Relative tumor volumes of A549 xenografts in NMRI female nude mice after treatment with compound 3 mg/kg twice a week for 49 days. Error bars represent median±SEM, n=10 mice at each time point and analyzed by one-tailed T-TEST in Prism for *p<0.05

[8] = test system: A549 xenografts; assay: A549 xenograft model in nude mice; type: in vivo, NMRI nude female mice; details: 3 mg/kg i.p. twice a week for 49 days, FIG. 5
Procedure: NMRI nude female mice of 6-8 weeks of age were acclimated after shipping for >4 days. A549 cells, 5×10^6 in 100 ul Matrigel:PBS (50:50), were subcutaneously injected into flanks of mice. When the tumor size reached 80 to 200 mm^3, mice were grouped with similar average tumor size in each group, 10 animals per group. Compounds were dissolved in 10% DMSO, 10% Solutol, 80% water. Compounds were given i.p. for 49 days at 3 mg/kg twice a week. Caliper measurement of tumor size was done twice a week.
Error bars represent median±SEM, n=10 mice at each time point and analyzed by one-tailed T-TEST in Prism for *p<0.05.

## Cc1c2oc3c(C)ccc(C(=O)N[C@@H]4C(=O)N[C@H](C(C)C)C(=O)N5CCC[C@H]5C(=O)N(C)CC(=O)N(C)[C@@H](C(C)C)C(=O)O[C@@H]4C)c3nc-2c(C(=O)N[C@@H]2C(=O)N[C@H](C(C)C)C(=O)N3CCC[C@H]3C(=O)N(C)CC(=O)N(C)[C@@H](C(C)C)C(=O)O[C@@H]2C)c(N)c1=O [actinomycin D] (I: T[dV]P[Sar][NMeV] / II: T[dV]P[Sar][NMeV]; ester I:1-I:C, II:1-II:C; linker I:N-II:N via Actinocin(9to1))
[1]
  c-Myc mRNA level: complete reduction
  c-Myc transcription sites: complete reduction
[2]; 24 hours, FIG. 3 upper panel
  c-Myc protein detected by immunofluorescence: reduced c-Myc protein
[3]
  c-Myc protein level: significant decrease
[4]
  c-Myc mRNA in the cytoplasm: mRNA accumulation in the cytoplasm
  c-Myc transcription site (spots inside the nucleus): inhibited transcription site

## C[C@@H]1C[C@@H]([C@H](O)CC2CC(=O)NC(=O)C2)C(=O)[C@@H](C)C1 [cycloheximide]
[5]
  global protein synthesis (AHA metabolic labeling): total inhibition
[6]
  incorporation of modified methionine (global translation): completely reduced incorporation of modified methionine

## NCc1ccc(-c2cn3c(n2)sc2cc(C(=O)NCCCN4CCCCC4)ccc23)cc1Cl [compound 376, 2-(4-(aminomethyl)-3-chlorophenyl)-N-(3-(piperidin-1-yl)propyl)benzo[d]imidazo [2,1-b]thiazole-7-carboxamide]
[2]
  Myc Efficacy (−LogEC50): +++ (+++ ≥6)

## NC1(c2ccc(-c3cn4c(n3)sc3cc(C(=O)NCCCN5CCCCC5)ccc34)cc2)CC1 [compound 332, 2-(4-(1-aminocyclopropyl)phenyl)-N-(3-(piperidin-1-yl)propyl)benzo[d]imidazo [2,1-b]thiazole-7-carboxamide]
[2]
  Myc Efficacy (−LogEC50): +++ (+++ ≥6)
[7]
  c-Myc-dependent tumor growth (relative tumor volumes): inhibited c-Myc-dependent tumor growth in-vivo
[8]
  c-Myc-dependent tumor growth (relative tumor volume): inhibited c-Myc-dependent tumor growth in-vivo

## Cc1cccc(-c2cn3c(n2)sc2cc(C(=O)NC4CCNCC4)ccc23)c1 [compound 140, N-(piperidin-4-yl)-2-(m-tolyl)benzo[d]imidazo[2,1-b]thiazole-7-carboxamide]
[2]
  Myc Efficacy (−LogEC50): ++ (++ ≥5 and <6)

## CNC(=O)c1ccc(-c2cn3c(n2)sc2cc(C(=O)NCC4(N)CC4)ccc23)cc1 [compound 251, N-((1-aminocyclopropyl)methyl)-2-(4-(methylcarbamoyl)phenyl) benzo[d]imidazo[2,1-b]thiazole-7-carboxamide]
[2]
  Myc Efficacy (−LogEC50): − (− ≤3)
